Assay results reported in patent US10131644B2, “Aryl sultam derivatives as RORc modulators” (Genentech, Inc., priority 2014, dated 2018).

What follows are compounds tested against T1, RORc (Homo sapiens, UniProt P51449) (assay: In vitro RORc ligand binding assay (25-[3H]hydroxycholesterol displacement)). Settings: IC50, IC50 values for RORc; unit inferred.
T1 sequence (P51449 269-508 limits assumed): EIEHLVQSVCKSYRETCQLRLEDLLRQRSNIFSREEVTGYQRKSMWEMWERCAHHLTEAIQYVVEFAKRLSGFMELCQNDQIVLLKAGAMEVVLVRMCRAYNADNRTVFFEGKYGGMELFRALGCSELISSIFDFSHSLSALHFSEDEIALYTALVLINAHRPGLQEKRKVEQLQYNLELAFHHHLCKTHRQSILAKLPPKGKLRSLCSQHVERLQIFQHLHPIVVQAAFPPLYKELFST
Method: This assay was used to determine a compound's potency in inhibiting activity of RORc by determining, Kiapp, IC50, or percent inhibition values.
On day of the assay, 100 uL of 0.05% CHAPS (in deionized H2O) was added to all wells of the GFB Unifilter plate and allowed soak for 1 h. A wash buffer of 50 mM HEPES (pH 7.4), 150 mM NaCl, and 5 mM MgCl2 was prepared to wash the filter plate. To prepare an assay buffer, BSA was added to the wash buffer to reach 0.01% and DTT was added to reach 1 mM.
The 20× compound stocks were diluted in DMSO with Assay Buffer 4-fold to reach 5× the final test concentration in 25% DMSO (10 uL compound+30 uL Assay Buffer). Solutions were mixed by aspiration several times with a pipette set on 50 uL volume. For the assay, 10 uL of 5× compound stock solutions in 25% DMSO were added to the assay plate in duplicate.
For two point screening, 10 mM stock compound solutions were diluted in DMSO to obtain 200 uM (20× the high test concentration) and then diluted 10-fold further to reach 20 uM (20× the low test concentration). The 20× stocks were diluted 4-fold with Assay Buffer (10 uL compound+30 uL Assay Buffer) to reach 5× the test concentrations (50 uM and 5 uM) and 10 uL were added to two assay plates for the duplicate wells. With each concentration tested on 2 plates, each set of 80 compounds used 4 assay plates (1 uM and 10 uM, with n=2).
For 25-hydroxycholesterol in 25% DMSO/75% Assay Buffer; 10 uL per well was used for NSB samples. Wells for Total Binding and No Receptor sample determination contained 10 uL of 25% DMSO/75% Assay Buffer per well.
Add 20 uL to all wells to reach 6 nM final in the assay.
Stock receptor solution was diluted in assay buffer to obtain 1.5 ug/mL in Assay Buffer. 20 uL was added to all wells. For No R samples, 20 uL Assay Buffer was substituted for receptor solution.
Assay plates were 96-well polypropylene V-bottom plates. 10 uL of 5× compound in 25% DMSO/75% Assay Buffer was added to Test wells. 10 uL of 25% DMSO/75% Assay Buffer was added to Total Binding or No Receptor wells. 10 uL of 5 uM 25-hydroxycholesterol in 25% DMSO/75% Assay Buffer was added to NSB wells. […] 20 uL of 1.5 ug/mL RORc receptor was added to wells (or 40 uL Assay Buffer to No R wells). Following addition to the wells, the plates were incubated 3 h at 25° C.
Using a Packard Filtermate Harvester, the filter plate were washed 4 times following transfer of the incubated samples. Plates were dry-filtered completely (2 h at 50° C. or overnight at room temperature). 50 uL Microscint 0 was added to all wells and read on Topcount protocol Inverted.
For NSB wells, 1 uM 25-hydroxycholesterol was also present.

Q: For `C[C@H]1CC[C@H](c2ccccc2)S(=O)(=O)N1Cc1cc(F)c(C2(C(N)=O)CCOCC2)cc1F` [Compound 102, 4-[2,5-difluoro-4-[[(3S,6R)-3-methyl-1,1-dioxo-6-phenyl-thiazinan-2-yl]methyl]phenyl]tetrahydropyran-4-carboxamide], which IC50 is on record?
A: Its IC50 is 37.8 nM.

Q: How did the IC50 turn out when `C[C@H]1CC[C@H](c2ccccc2)S(=O)(=O)N1Cc1ccc(C2(NC[C@H](O)CO)CCOCC2)cc1F` [Compound 107, (2S)-3-[[4-[3-fluoro-4-[[(3S,6R)-3-methyl-1,1-dioxo-6-phenyl-thiazinan-2-yl]methyl]phenyl]tetrahydropyran-4-yl]amino]propane-1,2-diol] was run?
A: The IC50 was 22.6 nM.

Q: With `C[C@H]1CC[C@H](c2ccccc2)S(=O)(=O)N1Cc1ccc(C2(NCC(N)=O)CCOCC2)cc1F` [Compound 163, 2-[[4-[3-fluoro-4-[[(3S,6R)-3-methyl-1,1-dioxo-6-phenyl-thiazinan-2-yl]methyl]phenyl]tetrahydropyran-4-yl]amino]acetamide] as the compound, how does the IC50 read?
A: Its IC50 is 3.2 nM.

Q: For `C[C@H]1CC[C@H](c2ccccc2)S(=O)(=O)N1Cc1ccc(C2(/C(N)=N\O)CCOCC2)cc1F` [Compound 93, 4-[3-fluoro-4-[[(3S,6R)-3-methyl-1,1-dioxo-6-phenyl-thiazinan-2-yl]methyl]phenyl]-N′-hydroxy-tetrahydropyran-4-carboxamidine], which IC50 is on record?
A: Its IC50 is 37.8 nM.

Q: Which IC50 does the source give for `C[C@H]1CC[C@H](c2ccccc2)S(=O)(=O)N1Cc1ccc(C2(CCO)COC2)cc1F` [Compound 158] here?
A: The IC50 was 60.3 nM.

Q: For `C[C@H]1CC[C@H](c2ccccc2)S(=O)(=O)N1Cc1cc(F)c(C2(OCC(O)CO)COC2)cc1F` (stereo partly drawn) [Compound 142, 3-[3-[2,5-difluoro-4-[[(3S,6R)-3-methyl-1,1-dioxo-6-phenyl-thiazinan-2-yl]methyl]phenyl]oxetan-3-yl]oxypropane-1,2-diol], which IC50 is on record?
A: The IC50 was 20.6 nM.

Q: With `C[C@H]1CC[C@H](c2ccccc2)S(=O)(=O)N1Cc1ccc(C2(OCC(N)=O)CCOCC2)cc1F` [Compound 113, 2-[4-[3-fluoro-4-[[(3S,6R)-3-methyl-1,1-dioxo-6-phenyl-thiazinan-2-yl]methyl]phenyl]tetrahydropyran-4-yl]oxyacetamide] as the compound, how does the IC50 read?
A: Its IC50 is 5 nM.

Q: With `C[C@H]1CC[C@H](c2ccccc2)S(=O)(=O)N1Cc1ccc(C2(C#N)CCOCC2)cc1` [Compound 30, 4-[4-((3S,6R)-3-Methyl-1,1-dioxo-6-phenyl-[1,2]thiazinan-2-ylmethyl)-phenyl]-tetrahydro-pyran-4-carbonitrile] as the compound, how does the IC50 read?
A: Its IC50 is 680 nM.

Q: For `C[C@H]1CC[C@H](c2ccccc2)S(=O)(=O)N1Cc1ccc(C2(C(=O)NCC(=O)N(C)C)CCOCC2)cc1F` [Compound 56, N-[2-(dimethylamino)-2-oxo-ethyl]-4-[3-fluoro-4-[[(3S,6R)-3-methyl-1,1-dioxo-6-phenyl-thiazinan-2-yl]methyl]phenyl]tetrahydropyran-4-carboxamide], which IC50 is on record?
A: The IC50 was 403 nM.

Q: Which IC50 does the source give for `C[C@H]1CC[C@H](c2ccccc2)S(=O)(=O)N1Cc1cc(F)c(C2(C(N)=O)CC2)cc1F` [Compound 125, 1-[2,5-difluoro-4-[[(3S,6R)-3-methyl-1,1-dioxo-6-phenyl-thiazinan-2-yl]methyl]phenyl]cyclopropane-carboxamide] here?
A: Its IC50 is 346 nM.

Q: With `C[C@H]1CC[C@H](c2ccccc2)S(=O)(=O)N1Cc1cc(F)c(C2(C(N)=O)CC(=O)C2)cc1F` [Compound 193, 1-[2,5-difluoro-4-[[(3S,6R)-3-methyl-1,1-dioxo-6-phenyl-thiazinan-2-yl]methyl]phenyl]-3-oxo-cyclobutanecarboxamide] as the compound, how does the IC50 read?
A: The IC50 was 8.07 nM.

Q: `COCCOCC1(c2ccc(CN3[C@@H](C)CC[C@H](c4ccccc4)S3(=O)=O)c(F)c2)CCOCC1` [Compound 82, (3S,6R)-2-[[2-fluoro-4-[4-(2-methoxyethoxymethyl)tetrahydropyran-4-yl]phenyl]methyl]-3-methyl-6-phenyl-thiazinane 1,1-dioxide] was tested. Which IC50 did it give?
A: Its IC50 is 70.5 nM.

Q: Which IC50 does the source give for `COC(=O)C1(c2ccc(CN3C(C)CCC(c4ccccc4)S3(=O)=O)c(F)c2)CCC(n2cnnc2)CC1` (stereo not drawn) [Compound 46, methyl 1-(3-fluoro-4-((3-methyl-1,1-dioxido-6-phenyl-1,2-thiazinan-2-yl)methyl)phenyl)-4-(4H-1,2,4-triazol-4-yl)cyclohexanecarboxylate] here?
A: The IC50 was 54 nM.

Q: How did the IC50 turn out when `C[C@H]1CC[C@H](c2ccccc2)S(=O)(=O)N1Cc1ccc(C2(CCC#N)CCOCC2)cc1F` [Compound 86, 3-[4-[3-fluoro-4-[[(3S,6R)-3-methyl-1,1-dioxo-6-phenyl-thiazinan-2-yl]methyl]phenyl]tetrahydropyran-4-yl]propanenitrile] was run?
A: Its IC50 is 7.8 nM.

Q: Which IC50 does the source give for `C[C@H]1CC[C@H](c2ccccc2)S(=O)(=O)N1Cc1ccc(C2(CC(N)=O)CCOCC2)cc1F` [Compound 89, 2-[4-[3-fluoro-4-[[(3S,6R)-3-methyl-1,1-dioxo-6-phenyl-thiazinan-2-yl]methyl]phenyl]tetrahydropyran-4-yl]acetamide] here?
A: The IC50 was 376 nM.

Q: `CCOC(=O)/C=C/C1(c2ccc(CN3[C@@H](C)CC[C@H](c4ccccc4)S3(=O)=O)c(F)c2)CC1` [Compound 114, ethyl (E)-3-[1-[3-fluoro-4-[[(3S,6R)-3-methyl-1,1-dioxo-6-phenyl-thiazinan-2-yl]methyl]phenyl]cyclopropyl]prop-2-enoate] was tested. Which IC50 did it give?
A: Its IC50 is 53.6 nM.

Q: `C[C@H]1CC[C@H](c2ccccc2)S(=O)(=O)N1Cc1cc(F)c(C2(N[S+]([O-])C(C)(C)C)COC2)cc1F` (stereo partly drawn) [Compound 191, N-[3-[2,5-difluoro-4-[[(3S,6R)-3-methyl-1,1-dioxo-6-phenyl-thiazinan-2-yl]methyl]phenyl]oxetan-3-yl]-2-methyl-propane-2-sulfinamide] was tested. Which IC50 did it give?
A: Its IC50 is 55.3 nM.

Q: How did the IC50 turn out when `C[C@H]1CC[C@H](c2ccccc2)S(=O)(=O)N1Cc1cc(F)c(C2(C(N)=O)CC(F)(F)C2)cc1F` [Compound 194, 1-[2,5-difluoro-4-[[(3S,6R)-3-methyl-1,1-dioxo-6-phenyl-thiazinan-2-yl]methyl]phenyl]-3,3-difluoro-cyclobutanecarboxamide] was run?
A: The IC50 was 3.05 nM.

Q: With `CNC(=O)CCC1(c2ccc(CN3[C@@H](C)CC[C@H](c4ccccc4)S3(=O)=O)c(F)c2)CCOCC1` [Compound 88, 3-[4-[3-fluoro-4-[[(3S,6R)-3-methyl-1,1-dioxo-6-phenyl-thiazinan-2-yl]methyl]phenyl]tetrahydropyran-4-yl]-N-methyl-propanamide] as the compound, how does the IC50 read?
A: Its IC50 is 14.8 nM.

Q: How did the IC50 turn out when `C[C@H]1CC[C@H](c2ccccc2)S(=O)(=O)N1Cc1cc(F)c(C2(OCC(O)CO)CCOCC2)cc1F` (stereo in doubt) [Compound 171, (2R)-3-[4-[2,5-difluoro-4-[[(3S,6R)-3-methyl-1,1-dioxo-6-phenyl-thiazinan-2-yl]methyl]phenyl]tetrahydropyran-4-yl]oxypropane-1,2-diol] was run?
A: Its IC50 is 11.6 nM.

Q: Which IC50 does the source give for `CCOC(=O)CCC1(c2cc(F)c(CN3[C@@H](C)CC[C@H](c4ccccc4)S3(=O)=O)cc2F)CC1` [Compound 140, ethyl 3-[1-[2,5-difluoro-4-[[(3S,6R)-3-methyl-1,1-dioxo-6-phenyl-thiazinan-2-yl]methyl]phenyl]cyclopropyl]propanoate] here?
A: The IC50 was 45.7 nM.

Q: `C[C@H]1CC[C@H](c2ccccc2)S(=O)(=O)N1Cc1ccc(C2(C(N)=O)CCC3(CC2)OCCO3)cc1F` [Example 22, 8-[3-Fluoro-4-((3S,6R)-3-methyl-1,1-dioxo-6-phenyl-[1,2]thiazinan-2-ylmethyl)-phenyl]-1,4-dioxa-spiro[4.5]decane-8-carboxylic acid amide] was tested. Which IC50 did it give?
A: Its IC50 is 30 nM.

Q: With `COCCCOCC1(c2ccc(CN3[C@@H](C)CC[C@H](c4ccccc4)S3(=O)=O)c(F)c2)CCOCC1` [Compound 91, (3S,6R)-2-[[2-fluoro-4-[4-(3-methoxypropoxymethyl)tetrahydro-pyran-4-yl]phenyl]methyl]-3-methyl-6-phenyl-thiazinane 1,1-dioxide] as the compound, how does the IC50 read?
A: Its IC50 is 103 nM.

Q: How did the IC50 turn out when `C[C@H]1CC[C@H](c2ccccc2)S(=O)(=O)N1Cc1ccc([C@]2(CO)CC[C@@H](n3cnnc3)CC2)cc1F` [Compound 26, {1-[3-Fluoro-4-((3S,6R)-3-methyl-1,1-dioxo-6-phenyl-[1,2]thiazinan-2-ylmethyl)-phenyl]-4-[1,2,4]triazol-4-yl-cyclohexyl}-methanol] was run?
A: The IC50 was 32 nM.

Q: Which IC50 does the source give for `C[C@H]1CC[C@H](c2ccccc2)S(=O)(=O)N1Cc1ccc(C2(CC#N)COC2)cc1F` [Compound 105, 2-[3-[3-fluoro-4-[[(3S,6R)-3-methyl-1,1-dioxo-6-phenyl-thiazinan-2-yl]methyl]phenyl]oxetan-3-yl]acetonitrile] here?
A: Its IC50 is 74.9 nM.

Q: Which IC50 does the source give for `C[C@H]1CC[C@H](c2ccccc2)S(=O)(=O)N1Cc1ccc(C2(C(C)(C)O)CCOCC2)cc1F` [Compound 76, 2-[4-[3-fluoro-4-[[(3S,6R)-3-methyl-1,1-dioxo-6-phenyl-thiazinan-2-yl]methyl]phenyl]tetrahydropyran-4-yl]propan-2-ol] here?
A: The IC50 was 32.1 nM.

Q: For `COC(=O)NCC1(c2ccc(CN3[C@@H](C)CC[C@H](c4ccccc4)S3(=O)=O)c(F)c2)CCOCC1` [Compound 73, methyl N-[[4-[3-fluoro-4-[[(3S,6R)-3-methyl-1,1-dioxo-6-phenyl-thiazinan-2-yl]methyl]phenyl]tetrahydropyran-4-yl]methyl]carbamate], which IC50 is on record?
A: The IC50 was 53.2 nM.

Q: How did the IC50 turn out when `C[C@H]1CC[C@H](c2ccccc2)S(=O)(=O)N1Cc1ccc(C2([C@H](O)CO)CCOCC2)cc1F` [Compound 103, (1S)-1-[4-[3-fluoro-4-[[(3S,6R)-3-methyl-1,1-dioxo-6-phenyl-thiazinan-2-yl]methyl]phenyl]tetrahydropyran-4-yl]ethane-1,2-diol] was run?
A: The IC50 was 68.9 nM.

Q: Which IC50 does the source give for `CC(=O)N1CCC(C(N)=O)(c2cc(F)c(CN3[C@@H](C)CC[C@H](c4ccccc4)S3(=O)=O)cc2F)CC1` [Compound 149, 1-acetyl-4-[2,5-difluoro-4-[[(3S,6R)-3-methyl-1,1-dioxo-6-phenyl-thiazinan-2-yl]methyl]phenyl]piperidine-4-carboxamide] here?
A: Its IC50 is 11.4 nM.

Q: With `C[C@H]1CC[C@H](c2ccccc2)S(=O)(=O)N1Cc1cc(F)c(C2(C#N)CC2)cc1F` [Compound 123, 1-[2,5-difluoro-4-[[(3S,6R)-3-methyl-1,1-dioxo-6-phenyl-thiazinan-2-yl]methyl]phenyl]cyclopropanecarbonitrile] as the compound, how does the IC50 read?
A: The IC50 was 22.7 nM.
